# Measurements published in US20110245340A1, “Screening Method for Identifying Patients at Risk of Adverse Hepatologic Events” (priority 2009, published 2011).
# Experiments:
# [1] = in vivo; cited from earlier work
# [2] = Large clinical study (more than 6000 pts, 2 year average exposure) in patients with pre-existing coronary artery disease; format: in vivo
# [3] = Hepatic events in combined dataset of type 2 diabetes mellitus patients using the risk identification tool (exclusion by ApoA1 > ULN or ALT > 2X ULN); format: in vivo, human; settings: for Percent of Hepatic Events: of 14 events
# Source text: As noted in Example 2, hepatic events in the sample populations were distributed 71% (17/24) for AGI-1067 treated patients and 29% (7/24) for patients receiving placebo resulting in an AGI-1067 to placebo ratio of 2.4.
# There were 14 patients in the combined dataset who had hepatic events using the ALT >5× ULN plus TBL <2× ULN or ALT >3× ULN plus TBL >2× ULN criteria. As noted in Example 2, at randomization the ratio of AGI-1067 to placebo patients was 1.3, the same value as the randomization ratio for AGI-1067 compared to placebo.
# When patients with elevated ApoA1 levels or ALT levels of greater than 2.0 times ULN were excluded, 10 hepatic events were eliminated. Of these, 90% were in the AGI-1067 treatment arm. Of the remaining 14 hepatic events, 8 were in AGI-1067 treated patients while 6 were in placebo treated patients. These hepatic events were distributed 57% (8/14) for AGI-1067 patients and 43% (6/14) for patients receiving placebo.
# Table 4 summarizes the impact of the exclusionary criteria (primarily ApoA1 elevation) on the number, frequency distribution and ratio of hepatic events for the AGI-1067 and placebo groups in the 3270 type 2 diabetes mellitus patients contained in the datasets.
# ALT >2× ULN could also be used as a secondary indicator for exclusion of patients.
# [4] = Hepatic events / ALT elevations in combined dataset of diabetes mellitus patients, before use of the risk identification tool; format: in vivo, human; settings: for Number of Patients ALT 3X to ≦ 5X ULN With TBL ≦ 2X ULN: diabetes patients; for Percent of Hepatic Events: of 24 events
# Description: Analyses were conducted to identify potential risk factors for drug-induced liver toxicity in clinical studies of the monosuccinic acid ester of probucol (AGI-1067). AGI-1067 represents a new class of therapies targeting certain chronic diseases such as type II diabetes mellitus and atherosclerosis. AGI-1067 functions both as a direct antioxidant and an inducer of endogenous, antioxidant processes such as hemeoxygenase-1 and thioredoxin.
# There were 36 patients who had peak elevations of ATL between 3× and ≦5× ULN in the combined dataset of diabetes mellitus patients. […] ALT levels therefore appear to have limited value in assessing potential for hepatotoxicity.
# There were 24 diabetes patients in the combined dataset who had hepatic events as using a criteria of either ALT >5× ULN plus TBL <2× ULN or ALT >3× ULN plus TBL >2× ULN criteria. At randomization, 57% of the patients were in the AGI-1067 arm and 43% were in the placebo arm resulting in an AGI-1067 to placebo ratio of 1.3. Of the 24 hepatic events, 17 occurred in AGI-1067 treated patients and 7 occurred in placebo treated patients. […]
# [5] = using the risk identification tool, 75 mg
# [6] = using the risk identification tool, 150 mg
# [7] = using the risk identification tool, 300 mg
# [8] = using the risk identification tool, AGI-1067 all doses
# [9] = before use of the risk identification tool, 75 mg
# [10] = before use of the risk identification tool, 150 mg
# [11] = before use of the risk identification tool, 300 mg
# [12] = before use of the risk identification tool, AGI-1067 all doses
smiles,measurement,setting,value
NNC(=O)c1ccncc1 [isoniazid],"Serious hepatotoxicity, share of recipients",[1],about 0.1%
"CC(C)(Sc1cc(C(C)(C)C)c(O)c(C(C)(C)C)c1)Sc1cc(C(C)(C)C)c(OC(=O)CCC(=O)O)c(C(C)(C)C)c1 [AGI-1067, monosuccinic acid ester of probucol]",Number of patients demonstrating elevated ALT and bilirubin,"[2]; of 3078 patients randomized to AGI-1067, four in the placebo arm",eight
same,HbA1c levels,[2]; subset of patients with type 2 diabetes mellitus,lower HbA1c levels
same,"Hard cardiovascular endpoints (composite of cardiovascular death, non-fatal MI and non-fatal stroke)",[2]; well-treated patients with pre-existing coronary artery disease,reduce hard cardiovascular endpoints
same,Incidence of hepatic events after application of the exclusionary criteria,[3]; 8/1851 patients,0.4%
same,Decrease (↓) of total number of hepatic events by using the risk identification tool,"[3]; AGI-1067 all doses, versus before use of the tool",53%
same,Excluded hepatic events relative to placebo patients using Baseline ApoA1 as predictive biomarker,[3]; Baseline ApoA1,seven times more excluded hepatic events
same,Number of Hepatic Events Excluded,[3]; Totals of all biomarkers,9
same,Number of Hepatic Events Excluded,[3]; biomarker Apo A1 > 165 mg/dl,7
same,Number of Hepatic Events Excluded,[3]; biomarker Baseline ALT > 2X ULN,1
same,Number of Hepatic Events Excluded,[3]; biomarker Month 1 ALT > 2X ULN,1
same,Share of the 10 eliminated hepatic events that were in the AGI-1067 treatment arm,[3]; exclusion of elevated ApoA1 or ALT > 2.0 times ULN,90%
same,Number of hepatic events versus placebo arm after excluding patients with ApoA1 above ULN (165 mg/dl) before drug,"[3]; human, in vivo",achieved parity
same,Ratio 1067/Placebo Hepatic Events,[3]; using the risk identification tool,1.3
same,Number of Hepatic Events ALT > 3X ULN Plus TBL > 2X ULN,[3]; [5],0
same,Number of Hepatic Events ALT > 5X ULN With TBL ≦ 2X ULN,[3]; [5],2
same,Number of Hepatic Events Total,[3]; [5],2
same,Percent of Hepatic Events,[3]; [5],14%
same,Number of Hepatic Events ALT > 3X ULN Plus TBL > 2X ULN,[3]; [6],0
same,Number of Hepatic Events ALT > 5X ULN With TBL ≦ 2X ULN,[3]; [6],1
same,Number of Hepatic Events Total,[3]; [6],1
same,Percent of Hepatic Events,[3]; [6],7%
same,Number of Hepatic Events ALT > 3X ULN Plus TBL > 2X ULN,[3]; [7],2
same,Number of Hepatic Events ALT > 5X ULN With TBL ≦ 2X ULN,[3]; [7],3
same,Number of Hepatic Events Total,[3]; [7],5
same,Percent of Hepatic Events,[3]; [7],36%
same,Number of Hepatic Events ALT > 3X ULN Plus TBL > 2X ULN,[3]; [8],2
same,Number of Hepatic Events ALT > 5X ULN With TBL ≦ 2X ULN,[3]; [8],6
same,Number of Hepatic Events Total,[3]; [8],8
same,Percent of Hepatic Events,[3]; [8],57%
same,Number of Patients ALT 3X to ≦ 5X ULN With TBL ≦ 2X ULN,[4]; 75 mg,3
same,Percent of ALT Elevations,"[4]; 75 mg, share of 36 patients",8%
same,Number of Patients ALT 3X to ≦ 5X ULN With TBL ≦ 2X ULN,[4]; 150 mg,4
same,Percent of ALT Elevations,"[4]; 150 mg, share of 36 patients",11%
same,Number of Patients ALT 3X to ≦ 5X ULN With TBL ≦ 2X ULN,[4]; 300 mg,10
same,Percent of ALT Elevations,"[4]; 300 mg, share of 36 patients",28%
same,Number of Patients ALT 3X to ≦ 5X ULN With TBL ≦ 2X ULN,[4]; AGI-1067 all doses,17
same,Percent of ALT Elevations,"[4]; AGI-1067 all doses, share of 36 patients with ALT 3X to ≦5X ULN",47%
same,Ratio 1067/Placebo Hepatic Events,[4]; before use of the risk identification tool,2.4
same,Number of Hepatic Events ALT > 3X ULN Plus TBL > 2X ULN,[4]; [9],0
same,Number of Hepatic Events ALT > 5X ULN With TBL ≦ 2X ULN,[4]; [9],4
same,Number of Hepatic Events Total,[4]; [9],4
same,Percent of Hepatic Events,[4]; [9],17%
same,Number of Hepatic Events ALT > 3X ULN Plus TBL > 2X ULN,[4]; [10],0
same,Number of Hepatic Events ALT > 5X ULN With TBL ≦ 2X ULN,[4]; [10],2
same,Number of Hepatic Events Total,[4]; [10],2
same,Percent of Hepatic Events,[4]; [10],8%
same,Number of Hepatic Events ALT > 3X ULN Plus TBL > 2X ULN,[4]; [11],4
same,Number of Hepatic Events ALT > 5X ULN With TBL ≦ 2X ULN,[4]; [11],7
same,Number of Hepatic Events Total,[4]; [11],11
same,Percent of Hepatic Events,[4]; [11],46%
same,Number of Hepatic Events ALT > 3X ULN Plus TBL > 2X ULN,[4]; [12],4
same,Number of Hepatic Events ALT > 5X ULN With TBL ≦ 2X ULN,[4]; [12],13
same,Number of Hepatic Events Total,[4]; [12],17
same,Percent of Hepatic Events,[4]; [12],71%
same,Incidence of ALT elevations 3X to ≦5X ULN versus placebo,[4]; diabetes mellitus patients,comparable
